# Results as given in paper PMC6980506, “Comparative pharmacokinetics and pharmacodynamics of the advanced Retinol-Binding Protein 4 antagonist in dog and cynomolgus monkey” (PLoS ONE, 2020).
# Several values for one entry are separate records, joined by “and”; a condition that tells them apart may be missing. Equal values may be shown once. Read-outs that look alike come from different tables or passages of the source.
# Columns and labels:
# [1] = Single dose pharmacokinetic study in cynomolgus monkey; type: in vivo
# Description: Pharmacokinetic studies were conducted in male beagle dogs and male cynomolgus monkeys at SRI International, Menlo Park, CA. General procedures for animal care and housing were in accordance with the National Research Council (NRC) Guide for the Care and Use of Laboratory Animals (1996) and the Animal Welfare Standards incorporated in 9 CFR Part 3, 1991 and complied with guidelines set forth by the ARVO Animal Statement for the Use of Animals in Ophthalmic and Vision Research. During the course of the PK experiments, cynomolgus monkeys were individually housed in stainless steel primary enclosures in an AAALAC-accredited facility. Animals were fed a commercial monkey chow, and supplemental food was provided (fresh fruits, vegetables, seeds, and nuts). Reverse osmosis-purified drinking water was available at all times. Cynomolgus monkeys were maintained on a 12:12 hour light:dark cycle at the 64–84°F temperature and 30–70% humidity. Monkeys had access to enrichment opportunities (grooming devices, foraging devices, activity panels and mirrors) and were provided auditory stimuli and human interaction enrichment throughout the study. Blood samples were collected by venipuncture of a peripheral vein. Animals were acclimated to the squeeze back mechanism in their home cage by repeated, short periods of restraint during general husbandry procedures for at least 2 weeks prior to dosing. Animal were not removed from their cages for collection, and no anesthesia/analgesic agents were used for blood collection. […] For PK experiments, beagle dogs were individually housed in enclosed run (≥ 4 ft x 6 ft). Dogs were exposed to their daily ration of food, Harlan Teklad 2025C Certified Global 25% Protein Dog Diet. Water was provided from the public water supply (municipal tap water) ad libitum. Dogs were maintained on a 12:12 hour light:dark cycle at the 72–73°F temperature and 40–71% humidity. Every effort was made to minimize, if not eliminate, pain and suffering in all animals in this study. No restraining devices were used in blood collecting procedures. Dogs were gentle hand-held to restrain by trained technicians with the dogs foreleg extended for sample collection of blood from cephalic vein. Animals were awake during blood sample collection with no anesthesia/analgesic agents used, and positive reinforcement by the technician was provided following collection. […] All dogs were released back to the colony after the study was completed. Male beagle dogs and male cynomolgus monkey received a single i.v. dose of a test compound at 0.5 mg kg^−1 (dog) and 1 mg kg^−1 (monkey) or a single p.o. dose of a test compound of at 2 mg kg^−1 (dog) and 5 mg kg^−1 (monkey). The number of animals that was used in PK experiments is 3 per study group. Intravenous administration vehicle was 3% DMA/45% PEG300/12% ethanol/40% sterile water; p.o. vehicle was 2% Tween 80 in 0.9% saline. […] Blood samples were processed to plasma. Following protein extraction with acetonitrile, compound concentrations in plasma were measured by LC-MS/MS. The plasma drug level data were analyzed using WinNonlin software package; Model 201 (for i.v. bolus administration);was used for the analysis of i.v. data, and Model 200 (for extravascular administration) was used for the analysis of the p.o. data. Aliquots of pre-dose plasma samples, as well as aliquots of plasma PK samples, were used for the analysis of the plasmabiomarker, RBP4.
# Administration to Non-Human Primates
# II. MATERIALS AND METHODS
# [2] = tested on: cytochrome (CYP) P450 enzymes; parameters: method as in PMID 26181715; settings: all standard CYP P450 enzymes; read-out: CYP inhibition IC50; cited from earlier work
# [3] = tested on: standard screening panel of fifty-five GPCRs, enzymes, ion channels, and transporters; parameters: method as in PMID 26181715; settings: cited from earlier work
# [4] = male, cynomolgus monkey, plasma, po, Cyno, 5.0 mg kg^−1 p.o., mean ± SD, n=3
compound,measurement,setting,value
Cc1cc(C(=O)O)nc(N2C[C@H]3C[C@@H](c4ccccc4C(F)(F)F)C[C@H]3C2)n1 [BPN-14136],concentration at 4 hr,"[1]; male, cynomolgus monkey, plasma, po, 5 mg/kg, non-human primate, po 5 mg/kg, 4 hr, read-out: Plasma level, Individual animals",26.6 µg/mL
same,concentration at 4 hr,"[1]; male, cynomolgus monkey, plasma, po, 5 mg/kg, non-human primate, po 5 mg/kg, 4 hr, read-out: Plasma level, Mean",27.2 µg/mL
same,concentration at 6 hr,"[1]; male, cynomolgus monkey, plasma, po, 5 mg/kg, non-human primate, po 5 mg/kg, 6 hr, read-out: Plasma level, Individual animals",26.7 µg/mL
same,concentration at 6 hr,"[1]; male, cynomolgus monkey, plasma, po, 5 mg/kg, non-human primate, po 5 mg/kg, 6 hr, read-out: Plasma level, Mean",26.6 µg/mL
same,concentration at 8 h,"[1]; male, cynomolgus monkey, plasma, po, 5 mg/kg, non-human primate, po 5 mg/kg, 8 hr, read-out: Plasma level, Individual animals",23.9 µg/mL
same,concentration at 8 h,"[1]; male, cynomolgus monkey, plasma, po, 5 mg/kg, non-human primate, po 5 mg/kg, 8 hr, read-out: Plasma level, Mean",23.9 µg/mL
same,concentration at 12 h,"[1]; male, cynomolgus monkey, plasma, po, 5 mg/kg, non-human primate, po 5 mg/kg, 12 hr, read-out: Plasma level, Individual animals",16.7 µg/mL
same,concentration at 12 h,"[1]; male, cynomolgus monkey, plasma, po, 5 mg/kg, non-human primate, po 5 mg/kg, 12 hr, read-out: Plasma level, Mean",18.6 µg/mL
same,concentration at 24 h,"[1]; male, cynomolgus monkey, plasma, po, 5 mg/kg, non-human primate, po 5 mg/kg, 24 hr, read-out: Plasma level, Individual animals",12.7 µg/mL
same,concentration at 24 h,"[1]; male, cynomolgus monkey, plasma, po, 5 mg/kg, non-human primate, po 5 mg/kg, 24 hr, read-out: Plasma level, Mean",12.5 µg/mL
same,concentration at 36 h,"[1]; male, cynomolgus monkey, plasma, po, 5 mg/kg, non-human primate, po 5 mg/kg, 36 hr, read-out: Plasma level, Individual animals",6.8 µg/mL
same,concentration at 36 h,"[1]; male, cynomolgus monkey, plasma, po, 5 mg/kg, non-human primate, po 5 mg/kg, 36 hr, read-out: Plasma level, Mean",7.19 µg/mL
same,concentration at 48 h,"[1]; male, cynomolgus monkey, plasma, po, 5 mg/kg, non-human primate, po 5 mg/kg, 48 hr, read-out: Plasma level, Mean",5.38 µg/mL
same,AUC(0-t),[1]; [4],676 ± 129 µg·h/mL
same,Tmax,[1]; [4],1.67 ± 0.58 h
same,half-life,"[1]; male, cynomolgus monkey, plasma, po, Cyno, 5.0 mg kg^−1 p.o., mean ± SD, n=3, read-out: T1/2, apparent terminal half-life (converted)",17.8 ± 4.2 h
same,"Plasma level, Individual animals","[1]; non-human primate, iv 1.0 mg/kg, 0.0083 hr, 1 mg/kg",11.2 µg/mL and 12.1 µg/mL
same,"Plasma level, Individual animals","[1]; non-human primate, iv 1.0 mg/kg, 0.25 hr, 1 mg/kg",10.9 µg/mL and 10.8 µg/mL
same,"Plasma level, Individual animals","[1]; non-human primate, iv 1.0 mg/kg, 0.5 hr, 1 mg/kg",10 µg/mL and 9.4 µg/mL
same,"Plasma level, Individual animals","[1]; non-human primate, iv 1.0 mg/kg, 1 hr, 1 mg/kg",8.35 µg/mL and 9.37 µg/mL
same,"Plasma level, Individual animals","[1]; non-human primate, iv 1.0 mg/kg, 2 hr, 1 mg/kg",7.34 µg/mL and 8 µg/mL
same,"Plasma level, Individual animals","[1]; non-human primate, iv 1.0 mg/kg, 4 hr, 1 mg/kg",6.8 µg/mL and 7 µg/mL
same,"Plasma level, Individual animals","[1]; non-human primate, iv 1.0 mg/kg, 8 hr, 1 mg/kg",5.29 µg/mL and 6.22 µg/mL
same,"Plasma level, Individual animals","[1]; non-human primate, iv 1.0 mg/kg, 12 hr, 1 mg/kg",3.86 µg/mL and 6 µg/mL
same,"Plasma level, Individual animals","[1]; non-human primate, iv 1.0 mg/kg, 24 hr, 1 mg/kg",2.51 µg/mL and 3.43 µg/mL
same,"Plasma level, Individual animals","[1]; non-human primate, iv 1.0 mg/kg, 36 hr, 1 mg/kg",1.61 µg/mL and 1.09 µg/mL and 2.3 µg/mL
same,"Plasma level, Individual animals","[1]; non-human primate, iv 1.0 mg/kg, 48 hr, 1 mg/kg",0.962 µg/mL and 0.671 µg/mL and 1.53 µg/mL
same,"Plasma level, Mean","[1]; non-human primate, iv 1.0 mg/kg, Predose",0.196 µg/mL
same,"Plasma level, Individual animals","[1]; non-human primate, iv 1.0 mg/kg, Predose, 1 mg/kg",0.132 µg/mL and 0.0646 µg/mL and 0.392 µg/mL
same,"Plasma level, Individual animals","[1]; non-human primate, po 5 mg/kg, 0.25 hr, 5 mg/kg",9.42 µg/mL and 14.2 µg/mL
same,"Plasma level, Individual animals","[1]; non-human primate, po 5 mg/kg, 0.5 hr, 5 mg/kg",15.2 µg/mL and 23.4 µg/mL
same,"Plasma level, Individual animals","[1]; non-human primate, po 5 mg/kg, 1 hr, 5 mg/kg",31.4 µg/mL and 33.3 µg/mL
same,"Plasma level, Individual animals","[1]; non-human primate, po 5 mg/kg, 2 hr, 5 mg/kg",29.3 µg/mL and 32 µg/mL
same,"Plasma level, Individual animals","[1]; non-human primate, po 5 mg/kg, 4 hr, 5 mg/kg",25.8 µg/mL and 29.1 µg/mL
same,"Plasma level, Individual animals","[1]; non-human primate, po 5 mg/kg, 6 hr, 5 mg/kg",22.4 µg/mL and 30.6 µg/mL
same,"Plasma level, Individual animals","[1]; non-human primate, po 5 mg/kg, 8 hr, 5 mg/kg",21.7 µg/mL and 26.2 µg/mL
same,"Plasma level, Individual animals","[1]; non-human primate, po 5 mg/kg, 12 hr, 5 mg/kg",16.1 µg/mL and 22.9 µg/mL
same,"Plasma level, Individual animals","[1]; non-human primate, po 5 mg/kg, 24 hr, 5 mg/kg",9.59 µg/mL and 15.1 µg/mL
same,"Plasma level, Individual animals","[1]; non-human primate, po 5 mg/kg, 36 hr, 5 mg/kg",5.23 µg/mL and 9.53 µg/mL
same,"Plasma level, Individual animals","[1]; non-human primate, po 5 mg/kg, 48 hr, 5 mg/kg",4.55 µg/mL and 2.95 µg/mL and 8.65 µg/mL
same,IC50,[2],> 34 µM
same,off-target activity within standard screening panel,[3],no significant off-target activity
